Experimental data as given in US12048742B2, “Hepatitis C virus peptide compositions and methods of use thereof” (The Governors of the University of Alberta, priority 2018, dated 2024).
Several values for one entry are separate records, joined by “and”; a condition that tells them apart may be missing. Equal values may be shown once. No end group written: not given here.

Key:
[1] = Solubility of T-cell epitope polypeptides in E1E2 buffer (Protocol 1); assay type: physicochemical; conditions: for solubility in E1E2 buffer (in words): Protocol 1, 1 mg/ml in E1E2 buffer, Nanodrop, FIG. 6, estimates based on A280 nm reading; for solubility: E1E2 buffer (10 mM sodium citrate, 250 mM NaCl, 1 mM EDTA, 0.1% TWEEN 80, pH 6.0), without adding dimethylsulfoxide, read-out: soluble in E1E2 buffer at a concentration of
Protocol: For example, the peptides TP35-NS3 and TP50C are soluble in E1E2 buffer at a concentration of at least 1 mg/ml. The peptides TP35-NS3 and TP50C are soluble in E1E2 buffer at a concentration of at least 1 mg/ml, without the need for adding dimethylsulfoxide (DMS). In some cases, a T-cell epitope polypeptide suitable for inclusion in a composition of the present disclosure is soluble in E1E2 buffer at a concentration of at least 25 μg/ml, at least 30 μg/ml, at least 35 µg/ml, at least 50 μg/ml, at least 75 μg/ml, at least 100 μg/ml, at least 250 μg/ml, at least 500 µg/ml, at least 750 μg/ml, or at least 1 mg/ml.
Protocol 1 The solubility of the T-cell epitope polypeptides in E1E2 buffer was determined. E1E2 buffer: 10 mM sodium citrate, 250 mM NaCl, 1 mM ethylenediaminetetraacetic acid (EDTA), 0.1% non-ionic detergent TWEEN® 80, pH 6.0. Lyophilized T-cell epitope polypeptides were individually added to E1E2 buffer at a final concentration of 1 mg T-cell epitope polypeptide per ml E1E2 buffer, to generate T-cell epitope polypeptide/E1E2 solutions. The T-cell epitope polypeptide/E1E2 solutions were vortexed for 3 seconds. The T-cell epitope polypeptide/E1E2 solutions were then centrifuged at 10,000×g for 30 seconds. […] After centrifugation, the concentration of peptides was measured using Nanodrop (Thermo Fisher).
Solubility values shown in FIG. 6 are estimates based on A280 nm reading.

[2] = Solubility of reconstituted lyophilized peptides (Protocol 3); assay type: physicochemical; conditions: Protocol 3, reconstituted in E1E2 buffer, E1E2 buffer without Tween, or water; shaking 2 h 30 min at room temperature; FIG. 13
Protocol: Protocol 3 TP42, TP45(Lys)3, and TP48 were lyophilized. The lyophilized peptides were reconstituted in: i) E1E2 buffer; or ii) E1E2 buffer without Tween; or iii) water. The reconstituted peptide solutions were vigorously vortexed for 20 seconds. After vortexing, the peptide solutions were incubated at room temperature with continuous shaking at 300 rpm for 2 hours 30 minutes. Afterwards, peptide solutions were centrifuged at 5000×g for 1 minute. After centrifugation, the concentration of the peptides in the supernatant was measured.

[3] = TP42-2: […] MW= 4543 g/mol; EC= 3105 (secreted protein)
Protocol: Table printed on a drawing sheet, FIG. 27
Title: TP42-2: […] MW= 4543 g/mol; EC= 3105 (secreted protein)
The patent's description of the figure: FIG. 27 depicts solubility data for a TP33 T-cell epitope polypeptide (SEQ ID NO:279) and a TP42-2 T-cell epitope polypeptide (SEQ ID NO:291).
First reader's note: The sequence, MW and EC of TP42-2 are printed above the table; each row is one solution in which solubility was tested.

FIG. 6 = assay: FIG. 6
Source text: Table printed on a drawing sheet, FIG. 6
The patent's description of the figure: FIG. 6 provides the solubility of various T-cell epitope polypeptides in an aqueous buffer. TP35-NS3: SEQ ID NO:133; TP35-NS3(Lys)3: SEQ ID NO:302; TP42: SEQ ID NO:228; TP45 (C-terminal CNV replaced with KKK): SEQ ID NO:248; TP48: SEQ ID NO:254; TP48(Lys)3: SEQ ID NO:257; and TP50-C: SEQ ID NO:148.
First reader's note: Blanks inside the sequences only mark line breaks within the printed cell.

GTEGEIPFYGKAIPLEQIKGGRHLIFCHSKKKCDELAAKLTG [TP42] [listing 1 of 2 here]
visible precipitation in E1E2 buffer ([1]; Protocol 1, 1 mg peptide per ml E1E2 buffer, after vortexing and centrifugation at 10,000×g): precipitation was visible
solubility in E1E2 buffer (in words) [1]: much lower solubility
solubility (in words) [2]: good solubility

ILRRHVGPGEGAVQWMNRLIAFASRGNHVSPTHYVPESDASARVTQIL [TP48]
solubility (in words) [2]: good solubility

KSTKVPAAYAAQGYKVLVLNPSVAATLGFGAYMSK [TP35-NS3]
solubility [1]: ≥ 1000 µg/mL
solubility in E1E2 buffer (in words) [1]: good solubility

CC[C@H](C)[C@H](NC(=O)[C@@H](NC(=O)[C@H](CO)NC(=O)[C@H](CC(=O)O)NC(=O)[C@H](Cc1ccccc1)NC(=O)[C@H](CC(=O)O)NC(=O)CNC(=O)[C@@H](NC(=O)[C@H](Cc1ccccc1)NC(=O)CNC(=O)[C@@H](NC(=O)[C@H](CCSC)NC(=O)[C@H](CC(C)C)NC(=O)[C@H](C)NC(=O)[C@H](CC(=O)O)NC(=O)[C@@H](NC(=O)[C@H](C)NC(=O)[C@@H](NC(=O)[C@@H](NC(=O)[C@@H](NC(=O)[C@@H](NC(=O)[C@H](CC(=O)O)NC(=O)CNC(=O)[C@H](CO)NC(=O)[C@@H](NC(=O)[C@@H]1CCCN1C(=O)[C@@H](NC(=O)[C@@H](NC(=O)[C@H](CO)NC(=O)[C@@H](NC(=O)[C@H](CC(=O)O)NC(=O)[C@H](CC(C)C)NC(=O)CNC(=O)[C@H](CCCNC(=N)N)NC(=O)[C@H](Cc1ccc(O)cc1)NC(=O)[C@H](Cc1ccc(O)cc1)NC(=O)[C@H](C)NC(=O)[C@@H](NC(=O)[C@H](C)NC(=O)[C@H](CC(N)=O)NC(=O)[C@@H](N)CC(C)C)C(C)C)C(C)C)C(C)C)[C@@H](C)CC)[C@@H](C)O)C(C)C)C(C)C)C(C)C)C(C)C)[C@@H](C)O)[C@@H](C)O)[C@@H](C)O)C(C)C)C(=O)N[C@@H](CC(=O)O)C(=O)N[C@@H](CCCCN)C(=O)N[C@@H](CCCCN)C(=O)N[C@@H](CCCCN)C(=O)O
solubility in E1E2 buffer (in words) [1]: much lower solubility

GVYLLPRRGPRLGVRATRKTSERSQPRGRRQPIPKARRSEGRSWAQPGYP [TP50-C]
solubility [1]: ≥ 1000 µg/mL
solubility in E1E2 buffer (in words) [1]: good solubility

KGGRHLIFCHSKKKCDELAAKLTGLGLNAVAYYRGLDVSVIP [TP42-2]
Solubility | Measured [3]: 415 µg/mL and 215 µg/mL and 233 µg/mL
Solubility | Percent (%) [3]: 83% and 43% and 47%

ILRRHVGPGEGAVQWMNRLIAFASRGNHVSPTHYVPESDASARVTQILKKK [TP48-(Lys)3]
solubility in E1E2 buffer (in words) [1]: good solubility

GTEGEIPFYGKAIPLEQIKGGRHLIFCHSKKKCDELAAKLTG [TP42] [listing 2 of 2 here]
Measured Concentration (FIG. 6): 0.079 mg/mL
Solubility (%) (FIG. 6): 12%

KSTKVPAAYAAQGYKVLVLNPSVAATLGFGAYMSKKKK [TP35-NS3-(Lys)3]
solubility in E1E2 buffer (in words) [1]: good solubility
